Experimental data reported in patent US5968526A, “T cell epitopes of the major allergens from Dermatophagoides (house dust mite)” (Immulogic Pharamaceutical Corporation, priority 1995, dated 1999).

Legend:
[1] = test system: T cell lines primed in vitro with Der p I; experiment: T cell proliferation with fine map and modified Group I peptides (Example XIV); type: cell-based, human; settings: for positive T cell responses, modified peptides: 18 T cell lines, affinity purified Der p I primed, FIG. 31a
Description: Long term T cell lines were established by stimulation of 2×10^6 PBL/ml in bulk cultures of complete medium (RPMI-1640, 2 mM L-glutamine, 100 U/ml penicillin/streptomycin, 5×10^-5 M 2-mercaptoethanol, and 10 mM HEPES supplemented with 5% heat inactivated human AB serum) with 30 μg/ml of purified native Der p I or Der p II for 5-6 days at 37° C. in a humidified 5% CO2 incubator to select for house dust mite protein allergen reactive T cells. This amount of priming antigen was determined to be optimal for the activation of T cells from house dust mite allergic patients. Viable cells were purified by LSM centrifugation and cultured in complete medium supplemented with 5 units recombinant human IL-2/ml and 5 units recombinant human IL-4/ml for up to three weeks until the cells no longer responded to lymphokines and were considered "rested". The ability of the T cells to proliferate to selected peptides, purified Der p I or Der p II, or positive (PHA) controls or negative controls (medium only) was then assessed. For assay, 2×10^4 rested cells were restimulated in the presence of 2×10^4 autologous Epstein-Barr virus (EBV)-transformed B cells (prepared as described below) (gamma-irradiated with 25,000 RADS) or with 5×10^4 autologous PBMs (gamma-irradiated with 3500 RADS), with 2-50 μg/ml of purified native Der p I or Der p II in a volume of 200 μl complete medium in duplicate or triplicate wells in 96-well round bottom plates for 3 days. Each well then received 1 μCi tritiated thymidine for 16-20 hours. The counts incorporated were collected onto glass fiber filter mats and processed for liquid scintillation counting. […] The titrations were used to optimize the dose of peptides in T cell assays.
The maximum response in a titration of each peptide is expressed as the stimulation index (S.I.). The S.I. is the counts per minute (CPM) incorporated by cells in response to peptide, divided by the CPM incorporated by cells in medium only. […] The positive results were used in calculating mean stimulation indices for each peptide for the individual patient tested.
The above procedure was followed with 18 patients in the studies using peptides derived from Der p I and Der f I (FIGS. 31a-b), and 21 patients in the studies with Der p II peptides (FIGS. 32a-b). Individual patient results were used in calculating the mean S.I. for each peptide if the patient responded to the Der p I or Der p II protein at an S.I. of 2.0 or greater and the patient responded to at least one peptide derived from a house dust mite allergen at an S.I. f 2.0 or greater. A summary of positive experiments from the patients tested is shown in FIGS. 32a and 32b and FIGS. 33a and 33b. The bars represent the positivity index. […] In parenthesis above each bar are the mean stimulation indices for each peptide or protein for the group of patients tested.
Autologous EBV-transformed cell lines were γ-irradiated with 25,000 Rad and used as antigen presenting cells in secondary proliferation assays and secondary bulk stimulations. These EBV-transformed cell lines were made by incubating 5×10^6 PBL with 1 ml of B-59/8 Marmoset cell line (ATCC CRL1612, American Type Culture Collection, Rockville, Md.) conditioned medium in the presence of 1 μg/ml phorbol 12-myristate 13-acetate (PMA) at 37° C. for 60 minutes in 12×75 mm polypropylene round-bottom Falcon snap cap tubes (Becton Dickinson Labware, Lincoln Park, N.J.). These cells were then diluted to 1.25×10^6 cells/ml in RPMI-1640 as described above except supplemented with 10% heat-inactivated fetal bovine serum and cultured in 200 μl aliquots in flat bottom culture plates until visible colonies were detected. They were then transferred to larger wells until the cell lines were established.

[2] = test system: T cell lines primed in vitro to Der f I; experiment: secondary proliferation of Der f I-primed T cell lines (Examples VI, VII, XI); type: cell-based, human; settings: for T cell response to Der p I peptides: Der f I primed, 8 positive experiments, FIG. 8
Method in brief: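 PBMC from house dust mite-allergic patients were primed in vitro with recombinant or affinity-purified Der f I at 20 μg/ml (or 10 μg/ml), then rechallenged with Der f I peptides. Antigen-presenting cells were x-irradiated autologous PBMC (3500 Rads) or EBV-transformed B cells (25,000 Rads). Read-out was T cell proliferation.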

Row | Substance | positive T cell responses, modified peptides [1] | T cell response, Group I peptides ([1]; FIGS. 31a-b) | T cell response to Der p I peptides [2] | positivity index, comparison ([1]; FIGS. 31a-b) | stimulation index, rank in group ([2]; 9 patients, FIG. 16a / 16b)
1 | DP I-23.31: modified Der p I peptide; unique peptide (DEEGVVQESYYRYVAREQSCRRPNAE) | all eighteen T cell lines responded positively | positive T cell studies |  |  | 
2 | DP I-26.6: modified Der p I peptide; unique peptide (DEGIKDLDAFRHYDGRTIIQRDNGYE) | all eighteen T cell lines responded positively | positive T cell studies |  |  | 
3 | DP I-3: Der p I peptide (TVTPIRMQGGCGSCWAFSGVAATESAYLA) |  |  | respond significantly |  | 
4 | DP I-21.2: Der p I peptide; unique peptide (SINGNAPAEIDLRQMRTVTPIRMQ) |  | positive response |  | higher positivity index then either of the overlapping peptides, DP I-1 and DP I-2 | 
5 | DP I-1: Der p I peptide, amino acid residues 1-20 (TNACSINGNAPAEIDLRQMR) |  | positive response | respond significantly |  | 
6 | DF I-22.2: VAATESAYLAYRNTSLDLSEQELVD, amino acid residues 40-64 of Der f I |  | positive responses |  |  | highest stimulation index
